Measured values: ChEMBL document CHEMBL1201862, “PubChem BioAssay data set” (2004)
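Protocol summary: plate cells (96-well), add compound at 5 concentrations, incubate 48 h, interpolate endpoints linearly. Abbreviation: GI50, concentration required for 50% inhibition of growth.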 The source made the active and inactive calls. Cut-off read from the data, not from the text of the source: active = GI50 up to about 1.1 µM and inactive = higher.

Key:
Experiment in all cases: NCI tumour cell line growth inhibition, 48 h
[1] = system: LOX IMVI
[2] = system: HCT-15
[3] = system: A498
[4] = system: NCI-H23
[5] = system: OVCAR-3
[6] = system: OVCAR-8
[7] = system: SK-MEL-5
[8] = system: T47D
[9] = system: A549
[10] = system: CCRF-CEM
[11] = system: OVCAR-4
[12] = system: CAKI-1
[13] = system: MCF7
[14] = system: HCC 2998
[15] = system: ACHN
[16] = system: 786-0
[17] = system: SK-OV-3
[18] = system: RPMI-8226
[19] = system: HOP-62
[20] = system: SK-MEL-2

| Structure (SMILES) | GI50 [1] | GI50 [2] [µM] | GI50 [3] | GI50 [4] | GI50 [5] | GI50 [6] | GI50 [7] | GI50 [8] | GI50 [9] | GI50 [10] | GI50 [11] | GI50 [12] | GI50 [13] | GI50 [14] | GI50 [15] | GI50 [16] | GI50 [17] | GI50 [18] | GI50 [19] | GI50 [20] |
| --- | --- | --- | --- | --- | --- | --- | --- | --- | --- | --- | --- | --- | --- | --- | --- | --- | --- | --- | --- | --- |
| O=C1C(Cl)=C(OCCCl)C(=O)c2c(O)ccc(O)c21 | 4.32 µM (inactive) | 2.53 | 20.5 µM (inactive) | 5.75 µM (inactive) | 2.96 µM (inactive) | 13.9 µM (inactive) | 2.75 µM (inactive) | 1.39 µM (inactive) | 20 µM (inactive) | 0.0813 µM (active) | 2.77 µM (inactive) | 2.38 µM (inactive) | 2.06 µM (inactive) | 18.5 µM (inactive) | 3.16 µM (inactive) | 6.58 µM (inactive) | 18.2 µM (inactive) | 0.74 µM (active) | 16.7 µM (inactive) |  |
| CC(=O)c1cccc(NC(=O)/C(=N\NC(=S)NN)C2C(=O)Nc3ccccc3[S+]2[O-])c1 (stereo not given) | > 100 µM (inactive) |  | > 100 µM (inactive) | > 100 µM (inactive) | > 100 µM (inactive) | > 100 µM (inactive) | > 100 µM (inactive) | > 100 µM (inactive) | > 100 µM (inactive) | > 100 µM (inactive) |  | > 100 µM (inactive) | > 100 µM (inactive) |  | > 100 µM (inactive) | > 100 µM (inactive) | > 100 µM (inactive) | > 100 µM (inactive) | > 100 µM (inactive) | > 100 µM (inactive) |
| CCN(CC)CCCNc1nncc2c(C)c3[nH]c4ccccc4c3cc12 | 0.242 µM (active) | 7.57 | 0.665 µM (active) | 0.743 µM (active) | 1.03 µM (active) | 0.685 µM (active) | 1.99 µM (inactive) | 0.705 µM (active) | 0.67 µM (active) | 0.02 µM (active) | 0.514 µM (active) | 3.61 µM (inactive) | 0.331 µM (active) | 0.802 µM (active) | 0.914 µM (active) | 0.667 µM (active) | 0.989 µM (active) |  | 0.378 µM (active) | 2.22 µM (inactive) |
| COC(=O)C1(CCCCCBr)CCCCCCCCCCC1=O (stereo not given) | 27.3 µM (inactive) | 38.8 | 28.3 µM (inactive) | 45.9 µM (inactive) | 28.4 µM (inactive) | 54.2 µM (inactive) | 16.3 µM (inactive) | 32.8 µM (inactive) | 31.3 µM (inactive) | 22.6 µM (inactive) | 19.8 µM (inactive) | 25.5 µM (inactive) | 15.7 µM (inactive) | 41.1 µM (inactive) | 40.7 µM (inactive) | 30.3 µM (inactive) | > 100 µM (inactive) |  | > 100 µM (inactive) | 28.9 µM (inactive) |
| CC(=O)c1sc2n(C)c(=O)c3ccccc3[n+]2c1C | > 100 µM (inactive) | > 100 |  | > 100 µM (inactive) | > 100 µM (inactive) | > 100 µM (inactive) | > 100 µM (inactive) | > 100 µM (inactive) | > 100 µM (inactive) | > 100 µM (inactive) | > 100 µM (inactive) | > 100 µM (inactive) | > 100 µM (inactive) | > 100 µM (inactive) | > 100 µM (inactive) | > 100 µM (inactive) | > 100 µM (inactive) | > 100 µM (inactive) | > 100 µM (inactive) | > 100 µM (inactive) |
| CC1C2CC(CC(=O)N2)C1(C)C (stereo not given) |  |  | > 100 µM (inactive) | > 100 µM (inactive) | > 100 µM (inactive) | > 100 µM (inactive) | > 100 µM (inactive) | > 100 µM (inactive) | > 100 µM (inactive) | > 100 µM (inactive) | > 100 µM (inactive) | > 100 µM (inactive) | > 100 µM (inactive) | > 100 µM (inactive) | > 100 µM (inactive) | > 100 µM (inactive) | > 100 µM (inactive) |  | > 100 µM (inactive) |  |
| c1ccc(C(=NNc2cnc3ccccc3n2)c2ccccn2)cc1 |  | 0.424 | 20.9 µM (inactive) | 2.61 µM (inactive) | 0.608 µM (active) | 0.352 µM (active) | 1.42 µM (inactive) | 0.0188 µM (active) | 3.15 µM (inactive) | 0.208 µM (active) | 3.89 µM (inactive) | 0.382 µM (active) | 0.371 µM (active) | 4.41 µM (inactive) | 0.405 µM (active) | 1.38 µM (inactive) | 3.78 µM (inactive) | 2.02 µM (inactive) | 7.26 µM (inactive) | 9.77 µM (inactive) |
| O=Cc1c2ccccc2n2ccc3c4ccccc4[nH]c3c12 | > 10 µM (inactive) | > 10 |  | > 10 µM (inactive) | > 10 µM (inactive) | > 10 µM (inactive) | > 10 µM (inactive) | > 10 µM (inactive) | > 10 µM (inactive) | > 10 µM (inactive) | > 10 µM (inactive) | > 10 µM (inactive) | 5.21 µM (inactive) | > 10 µM (inactive) | > 10 µM (inactive) | > 10 µM (inactive) | > 10 µM (inactive) | > 10 µM (inactive) | > 10 µM (inactive) | > 10 µM (inactive) |
| COc1ccc(N2C(=O)C3ON(C(C(N)=O)c4ccccc4)C(c4cc5ccccc5c5ccccc45)C3C2=O)cc1 (stereo not given) | 24.2 µM (inactive) | 20.4 | > 50 µM (inactive) | 45.7 µM (inactive) | 31.7 µM (inactive) | > 50 µM (inactive) | 19.7 µM (inactive) | 28.6 µM (inactive) | > 50 µM (inactive) | 12.7 µM (inactive) | 25.9 µM (inactive) | 9.1 µM (inactive) | 15.6 µM (inactive) |  | > 50 µM (inactive) | 32.4 µM (inactive) | > 50 µM (inactive) |  | > 50 µM (inactive) | 18.3 µM (inactive) |
| COc1ccc2nc(-c3ccc(O)cc3)sc2c1 | 22.6 µM (inactive) | 17.9 | 30.3 µM (inactive) | 20.8 µM (inactive) | 19.6 µM (inactive) | 20.7 µM (inactive) | 18.2 µM (inactive) | 17.5 µM (inactive) | 36.6 µM (inactive) |  | 28.5 µM (inactive) | 29.3 µM (inactive) | 34.7 µM (inactive) |  | 18 µM (inactive) | 15.6 µM (inactive) | 32.5 µM (inactive) | < 0.01 µM (active) |  | 43.4 µM (inactive) |
| O=C1Nc2ccccc2S/C1=C\c1cccc(C(F)(F)F)c1 | > 100 µM (inactive) | > 100 | > 100 µM (inactive) |  | > 100 µM (inactive) | > 100 µM (inactive) | > 100 µM (inactive) | 82.4 µM (inactive) | > 100 µM (inactive) | > 100 µM (inactive) | > 100 µM (inactive) | 3.01 µM (inactive) | 0.467 µM (active) |  | > 100 µM (inactive) | > 100 µM (inactive) | > 100 µM (inactive) | > 100 µM (inactive) | > 100 µM (inactive) | > 100 µM (inactive) |
| N#Cc1c2c(c(N)oc1=O)C(c1ccccc1)CC(=O)N2 (stereo not given) | > 100 µM (inactive) | > 100 |  | > 100 µM (inactive) | > 100 µM (inactive) | > 100 µM (inactive) | > 100 µM (inactive) | > 100 µM (inactive) | > 100 µM (inactive) | > 100 µM (inactive) | > 100 µM (inactive) | > 100 µM (inactive) | > 100 µM (inactive) | > 100 µM (inactive) | > 100 µM (inactive) | > 100 µM (inactive) | > 100 µM (inactive) | > 100 µM (inactive) | > 100 µM (inactive) | > 100 µM (inactive) |
| CSCCCCCCCCCCOc1ccc(C=C2C(=C(C#N)C#N)c3ccccc3C2=C(C#N)C#N)cc1 | 23.5 µM (inactive) | 23.1 | 17 µM (inactive) | 22.1 µM (inactive) | 16.4 µM (inactive) | 17.5 µM (inactive) | 17.9 µM (inactive) | 21.6 µM (inactive) |  | 1.32 µM (inactive) | 18.3 µM (inactive) | 17.1 µM (inactive) | 14.5 µM (inactive) |  | 13.1 µM (inactive) | 17.5 µM (inactive) | 17.6 µM (inactive) | 28.8 µM (inactive) | 17.9 µM (inactive) | 20.1 µM (inactive) |
| O=C1NC(N2CCOCC2)=N/C1=C\c1ccccc1O | > 100 µM (inactive) | > 100 | > 100 µM (inactive) | > 100 µM (inactive) | > 100 µM (inactive) | > 100 µM (inactive) | > 100 µM (inactive) | > 100 µM (inactive) | > 100 µM (inactive) | > 100 µM (inactive) | > 100 µM (inactive) | > 100 µM (inactive) | > 100 µM (inactive) |  | > 100 µM (inactive) | > 100 µM (inactive) | > 100 µM (inactive) | > 100 µM (inactive) | > 100 µM (inactive) | > 100 µM (inactive) |
| C=C1C[C@H]2C=Nc3cc(OCCCOc4cc5c(cc4OC)C(=O)N4CC(=C)C[C@H]4C=N5)c(OC)cc3C(=O)N2C1 [SJG-136] | < 0.01 µM (active) | 0.124 | 0.0146 µM (active) | 0.00166 µM (active) | 0.0172 µM (active) | 0.0119 µM (active) | < 0.01 µM (active) | < 0.01 µM (active) | 0.0157 µM (active) | < 0.01 µM (active) | 0.0306 µM (active) | < 0.01 µM (active) | 0.012 µM (active) | 0.0126 µM (active) | < 0.01 µM (active) | < 0.01 µM (active) | 0.0216 µM (active) | 0.0121 µM (active) | 0.0106 µM (active) |  |
